Experimental data: ChEMBL document CHEMBL5385917, “Irpetones A and B, Anti-Osteoclastic Heptaketides from a Marine Mesophotic Zone Ircinia Sponge-Associated Fungus Irpex sp. NBUF088” (J Nat Prod, 2024)
Activity calls are given as the source filed them. The calls are words filed in the database; no cut-off is given here.

How the values were obtained:
[1] = Cytotoxicity against mouse BMMC cells assessed as inhibition of cell growth incubated for 48 hrs by MTT assay; format: toxicity, cell-based
BMMC [2] = test: Inhibition of RANKL-induced JNK1/2 phosphorylation in mouse BMMC cells by Western blot analysis; format: cell-based; details: dose 0.5-1.5 µM
BMMC [3] = test: Inhibition of RANKL-induced NFkappaB signaling in mouse BMMC cells assessed as inhibition of NFkappab nuclear translocation at 5 to 10 uM by Western blot analysis; format: cell-based; details: dose 5-10 µM
[4] = Selectivity index, ratio of CC50 for cytotoxicity against mouse BMMC cells to IC50 for anti-osteoclastogenic activity in mouse BMMC cells; format: toxicity, cell-based; details: read-out: Ratio CC50/IC50
[5] = target: Mitogen-activated protein kinase 1 and 3 (ERK2 and ERK1) (Mus musculus) (UniProt P63085+Q63844); test: Inhibition of RANKL-induced ERK1/2 phosphorylation in mouse BMMC cells by Western blot analysis; format: cell-based; details: dose 0.5-1.5 µM
Mitogen-activated protein kinase 1 and 3 (ERK2 and ERK1) (Mus musculus), sequence (P63085 whole entry, looked up): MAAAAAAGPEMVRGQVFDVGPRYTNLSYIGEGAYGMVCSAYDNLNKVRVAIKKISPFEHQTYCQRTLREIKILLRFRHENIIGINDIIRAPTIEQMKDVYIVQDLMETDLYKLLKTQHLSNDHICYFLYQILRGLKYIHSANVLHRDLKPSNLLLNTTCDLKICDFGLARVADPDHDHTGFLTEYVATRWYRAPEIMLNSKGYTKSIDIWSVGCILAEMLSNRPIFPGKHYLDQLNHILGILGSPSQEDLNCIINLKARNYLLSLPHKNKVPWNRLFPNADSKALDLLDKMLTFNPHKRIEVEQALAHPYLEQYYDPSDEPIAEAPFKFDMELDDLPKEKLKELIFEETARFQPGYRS
Mitogen-activated protein kinase 1 and 3 (ERK2 and ERK1) (Mus musculus), sequence (Q63844 whole entry, looked up): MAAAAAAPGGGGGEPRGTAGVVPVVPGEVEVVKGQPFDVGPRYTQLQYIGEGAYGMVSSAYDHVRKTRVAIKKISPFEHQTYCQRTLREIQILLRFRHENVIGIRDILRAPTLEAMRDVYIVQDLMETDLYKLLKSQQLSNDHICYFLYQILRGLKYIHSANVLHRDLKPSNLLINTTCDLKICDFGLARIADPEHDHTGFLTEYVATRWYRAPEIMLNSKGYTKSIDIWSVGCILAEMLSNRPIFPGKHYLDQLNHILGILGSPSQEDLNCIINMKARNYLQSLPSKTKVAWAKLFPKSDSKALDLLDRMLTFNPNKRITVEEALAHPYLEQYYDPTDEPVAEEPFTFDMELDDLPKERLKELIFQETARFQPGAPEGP

BMMC [6] = test: Anti-osteoclastogenic activity in mouse BMMC cells assessed as inhibition of RANKL mediated osteoclast differentiation by TRAP activity; format: functional, cell-based
[7] = target: MAP kinase p38 (Mus musculus) (UniProt P47811+O08911+Q9WUI1+Q9Z1B7); test: Inhibition of RANKL-induced p38 MAPK phosphorylation in mouse BMMC cells by Western blot analysis; format: cell-based; details: dose 0.5-1.5 µM

C[C@@H]1C=C2C=C[C@@](C)(O)[C@]3(C)C(=O)[C@@](O)(CO)O[C@@H](C1)[C@@H]23
CC50 at 48 h [1]: > 30 µM
inhibition (BMMC [2]): Dose-Dependent Effect
inhibition (BMMC [3]): Active
selectivity ratio [4]: > 4.8
inhibition [5]: Dose-Dependent Effect
IC50 (BMMC [6]): 6.3 µM
inhibition [7]: Dose-Dependent Effect
